Test results published in patent US11957696B2 (Propella Therapeutics, Inc., priority 2021, dated 2024).

How the values were obtained:
[1] = Toxicokinetics of abiraterone decanoate and abiraterone in 13-week study; type: in vivo, cynomolgus monkeys; details: for AUC(0-t) / Cmax: male, cynomolgus monkey, in vivo, im; for AUC(0-t): Abiraterone Decanoate plasma AUC0-[…] (mean); for Cmax: Abiraterone Decanoate plasma Cmax (mean)
Procedure: Toxicokinetic parameters were obtained for each animal on Days 1, 29, and 71. […] A single 144-hour sample was collected outside of the allowable window for timed collections from one Animal on Day 29 and the actual time for this time point was used in the toxicokinetic data analysis. Nominal time was used for graphic representation and concentration table generation. For each animal, the following toxicokinetic parameters were determined: maximum observed plasma concentration (Cmax), time of maximum observed plasma concentration (Tmax), and area under the plasma concentration-time curve (AUC).

[2] = tested on: CYP17 hydroxylase/lyase; assay: Steroid hormone analysis (serum) in 13-week study; type: in vivo, cynomolgus monkeys; details: for Serum 17OH-Progesterone CFB (vs Day −1) / Serum 17OH-Progesterone Mean / Serum Aldosterone CFB (vs Day −1) / Serum Aldosterone Mean / Serum Androstenedione CFB (vs Day −1) / Serum Androstenedione Mean / Serum Corticosterone CFB (vs Day −1) / Serum Corticosterone Mean / Serum Cortisol CFB (vs Day −1) / Serum Cortisol Mean / Serum Dehydroepiandrosterone CFB (vs Day −1) / Serum Dehydroepiandrosterone Mean / Serum Deoxycortisol CFB (vs Day −1) / Serum Deoxycortisol Mean / Serum Dihydrotestosterone CFB (vs Day −1) / Serum Dihydrotestosterone Mean / Serum Progesterone CFB (vs Day −1) / Serum Progesterone Mean / Serum Testosterone CFB (vs Day −1) / Serum Testosterone Mean: intact male monkeys
Procedure: Sample Collection for Steroid Hormone Analysis (Serum): Blood samples (approximately 2.5 mL) were collected from all animals via the femoral vein for the steroid hormone analysis. The animals were fasted prior to blood collection.

[3] = Abiraterone plasma exposure from abiraterone decanoate formulations with and without benzyl benzoate; type: in vivo; details: corn oil 70%, benzyl alcohol 10%, benzyl benzoate 20% compared with corn oil 90%, same dose, monkeys
Source text: In some embodiments, the abiraterone prodrug formulation can comprise a combination of benzyl alcohol and benzyl benzoate as cosolvents. In some embodiments, the benzyl alcohol can be present in an amount of about 0-20% (e.g., 0-15% or 0-10%, such as about 10%) of the solvent, and benzyl benzoate can be present in an amount of about 0-50% (e.g., 0-35% or 0-30%, such as about 20%) of the solvent, wherein the balance of the solvent can be any one or more of the pharmaceutically acceptable oil described herein, such as corn oil, castor oil, sesame oil, peanut oil, cottonseed oil, and/or Miglyol 812, etc.

[4] = 20 mg/kg IM every two weeks, Day 15
[5] = 20 mg/kg IM every two weeks, Day 85
[6] = 60 mg/kg IM every two weeks, Day 15
[7] = 60 mg/kg IM every two weeks, Day 85
[8] = 200 mg/kg IM every two weeks, Day 15
[9] = 200 mg/kg IM every two weeks, Day 85
[10] = Day 85, 20 and 60 mg/kg dose groups

Compound: CCCCCCCCCC(=O)O[C@H]1CC[C@@]2(C)C(=CC[C@@H]3[C@@H]2CC[C@]2(C)C(c4cccnc4)=CC[C@@H]32)C1 [Abiraterone Decanoate, abiraterone decanoate]
- plasma exposures to abiraterone (Cmax and AUC) compared with oral abiraterone acetate toxicology studies ([1]; IM administration, cynomolgus monkeys): lower than levels achieved in toxicology studies with abiraterone acetate
- AUC(0-t) ([1]; 20 mg/kg): 888 ng·h/mL
- AUC(0-t) ([1]; 60 mg/kg): 2040 ng·h/mL
- AUC(0-t) ([1]; 200 mg/kg): 13100 ng·h/mL
- Cmax ([1]; 200 mg/kg): 66.6 ng/mL
- Cmax ([1]; cynomolgus, 20 mg/kg): 6.27 ng/mL
- AUC(0-t) ([1]; cynomolgus, 60 mg/kg): 2190 ng·h/mL
- Cmax ([1]; cynomolgus, 60 mg/kg): 15.8 ng/mL
- AUC(0-t) ([1]; cynomolgus, 200 mg/kg): 12400 ng·h/mL
- Cmax ([1]; cynomolgus, 200 mg/kg): 71.3 ng/mL
- Serum 17OH-Progesterone CFB (vs Day −1) [2, 4]: 1060%
- Serum 17OH-Progesterone Mean [2, 4]: 4289 pg/mL
- Serum Aldosterone CFB (vs Day −1) [2, 4]: −68%
- Serum Aldosterone Mean [2, 4]: 45 pg/mL
- Serum Androstenedione CFB (vs Day −1) [2, 4]: −82%
- Serum Androstenedione Mean [2, 4]: 39 pg/mL
- Serum Corticosterone CFB (vs Day −1) [2, 4]: 3361%
- Serum Corticosterone Mean [2, 4]: 110635 pg/mL
- Serum Cortisol CFB (vs Day −1) [2, 4]: −76%
- Serum Cortisol Mean [2, 4]: 34897 pg/mL
- Serum Dehydroepiandrosterone CFB (vs Day −1) [2, 4]: −73%
- Serum Dehydroepiandrosterone Mean [2, 4]: 1500 pg/mL
- Serum Deoxycortisol CFB (vs Day −1) [2, 4]: −64%
- Serum Deoxycortisol Mean [2, 4]: 241 pg/mL
- Serum Dihydrotestosterone CFB (vs Day −1) [2, 4]: −87%
- Serum Dihydrotestosterone Mean [2, 4]: 195 pg/mL
- Serum Progesterone CFB (vs Day −1) [2, 4]: 51539%
- Serum Progesterone Mean [2, 4]: 10328 pg/mL
- Serum Testosterone CFB (vs Day −1) [2, 4]: −65%
- Serum Testosterone Mean [2, 4]: 2148 pg/mL
- Serum Testosterone CFB (vs Day −1) ([2]; 20 mg/kg IM every two weeks, Day 15, listed as AbiDec): −87%
- Serum 17OH-Progesterone CFB (vs Day −1) [2, 5]: 1968%
- Serum 17OH-Progesterone Mean [2, 5]: 7647 pg/mL
- Serum Aldosterone CFB (vs Day −1) [2, 5]: 40%
- Serum Aldosterone Mean [2, 5]: 199 pg/mL
- Serum Androstenedione CFB (vs Day −1) [2, 5]: −53%
- Serum Androstenedione Mean [2, 5]: 106 pg/mL
- Serum Corticosterone CFB (vs Day −1) [2, 5]: 2837%
- Serum Corticosterone Mean [2, 5]: 93869 pg/mL
- Serum Cortisol CFB (vs Day −1) [2, 5]: −58%
- Serum Cortisol Mean [2, 5]: 62490 pg/mL
- Serum Dehydroepiandrosterone CFB (vs Day −1) [2, 5]: −76%
- Serum Dehydroepiandrosterone Mean [2, 5]: 1372 pg/mL
- Serum Deoxycortisol CFB (vs Day −1) [2, 5]: −47%
- Serum Deoxycortisol Mean [2, 5]: 357 pg/mL
- Serum Dihydrotestosterone CFB (vs Day −1) [2, 5]: −61%
- Serum Dihydrotestosterone Mean [2, 5]: 578 pg/mL
- Serum Progesterone CFB (vs Day −1) [2, 5]: 47710%
- Serum Progesterone Mean [2, 5]: 9562 pg/mL
- Serum Testosterone CFB (vs Day −1) [2, 5]: 3%
- Serum Testosterone Mean [2, 5]: 6286 pg/mL
- Serum 17OH-Progesterone CFB (vs Day −1) [2, 6]: 944%
- Serum 17OH-Progesterone Mean [2, 6]: 1631 pg/mL
- Serum Aldosterone CFB (vs Day −1) [2, 6]: −94%
- Serum Aldosterone Mean [2, 6]: 14 pg/mL
- Serum Androstenedione CFB (vs Day −1) [2, 6]: −94%
- Serum Androstenedione Mean [2, 6]: 20 pg/mL
- Serum Corticosterone CFB (vs Day −1) [2, 6]: 5279%
- Serum Corticosterone Mean [2, 6]: 163079 pg/mL
- Serum Cortisol CFB (vs Day −1) [2, 6]: −87%
- Serum Cortisol Mean [2, 6]: 18271 pg/mL
- Serum Dehydroepiandrosterone CFB (vs Day −1) [2, 6]: −75%
- Serum Dehydroepiandrosterone Mean [2, 6]: 1271 pg/mL
- Serum Deoxycortisol CFB (vs Day −1) [2, 6]: −72%
- Serum Deoxycortisol Mean [2, 6]: 93 pg/mL
- Serum Dihydrotestosterone CFB (vs Day −1) [2, 6]: −95%
- Serum Dihydrotestosterone Mean [2, 6]: 64 pg/mL
- Serum Progesterone CFB (vs Day −1) [2, 6]: 69193%
- Serum Progesterone Mean [2, 6]: 13859 pg/mL
- Serum Testosterone CFB (vs Day −1) [2, 6]: −94%
- Serum Testosterone Mean [2, 6]: 335 pg/mL
- Serum Testosterone CFB (vs Day −1) ([2]; 60 mg/kg IM every two weeks, Day 15, listed as AbiDec): −95%
- Serum 17OH-Progesterone CFB (vs Day −1) [2, 7]: 5546%
- Serum 17OH-Progesterone Mean [2, 7]: 8821 pg/mL
- Serum Aldosterone CFB (vs Day −1) [2, 7]: −18%
- Serum Aldosterone Mean [2, 7]: 194 pg/mL
- Serum Androstenedione CFB (vs Day −1) [2, 7]: −77%
- Serum Androstenedione Mean [2, 7]: 79 pg/mL
- Serum Corticosterone CFB (vs Day −1) [2, 7]: 3878%
- Serum Corticosterone Mean [2, 7]: 120598 pg/mL
- Serum Cortisol CFB (vs Day −1) [2, 7]: −72%
- Serum Cortisol Mean [2, 7]: 39689 pg/mL
- Serum Dehydroepiandrosterone CFB (vs Day −1) [2, 7]: −76%
- Serum Dehydroepiandrosterone Mean [2, 7]: 1200 pg/mL
- Serum Deoxycortisol CFB (vs Day −1) [2, 7]: −7%
- Serum Deoxycortisol Mean [2, 7]: 315 pg/mL
- Serum Dihydrotestosterone CFB (vs Day −1) [2, 7]: −69%
- Serum Dihydrotestosterone Mean [2, 7]: 361 pg/mL
- Serum Progesterone CFB (vs Day −1) [2, 7]: 67947%
- Serum Progesterone Mean [2, 7]: 13609 pg/mL
- Serum Testosterone CFB (vs Day −1) [2, 7]: 1%
- Serum Testosterone Mean [2, 7]: 5453 pg/mL
- Serum 17OH-Progesterone CFB (vs Day −1) [2, 8]: 158%
- Serum 17OH-Progesterone Mean [2, 8]: 474 pg/mL
- Serum Aldosterone CFB (vs Day −1) [2, 8]: −91%
- Serum Aldosterone Mean [2, 8]: 19 pg/mL
- Serum Androstenedione CFB (vs Day −1) [2, 8]: −93%
- Serum Androstenedione Mean [2, 8]: 20 pg/mL
- Serum Corticosterone CFB (vs Day −1) [2, 8]: 4238%
- Serum Corticosterone Mean [2, 8]: 138133 pg/mL
- Serum Cortisol CFB (vs Day −1) [2, 8]: −93%
- Serum Cortisol Mean [2, 8]: 7703 pg/mL
- Serum Dehydroepiandrosterone CFB (vs Day −1) [2, 8]: −64%
- Serum Dehydroepiandrosterone Mean [2, 8]: 1200 pg/mL
- Serum Deoxycortisol CFB (vs Day −1) [2, 8]: −84%
- Serum Deoxycortisol Mean [2, 8]: 44 pg/mL
- Serum Dihydrotestosterone CFB (vs Day −1) [2, 8]: −96%
- Serum Dihydrotestosterone Mean [2, 8]: 67 pg/mL
- Serum Progesterone CFB (vs Day −1) [2, 8]: 59894%
- Serum Progesterone Mean [2, 8]: 11999 pg/mL
- Serum Testosterone CFB (vs Day −1) [2, 8]: −99%
- Serum Testosterone Mean [2, 8]: 100 pg/mL
- Serum Testosterone CFB (vs Day −1) ([2]; 200 mg/kg IM every two weeks, Day 15, listed as AbiDec): −96%
- Serum 17OH-Progesterone CFB (vs Day −1) [2, 9]: 1696%
- Serum 17OH-Progesterone Mean [2, 9]: 3296 pg/mL
- Serum Aldosterone CFB (vs Day −1) [2, 9]: −82%
- Serum Aldosterone Mean [2, 9]: 37 pg/mL
- Serum Androstenedione CFB (vs Day −1) [2, 9]: −87%
- Serum Androstenedione Mean [2, 9]: 39 pg/mL
- Serum Corticosterone CFB (vs Day −1) [2, 9]: 3468%
- Serum Corticosterone Mean [2, 9]: 113629 pg/mL
- Serum Cortisol CFB (vs Day −1) [2, 9]: −83%
- Serum Cortisol Mean [2, 9]: 19682 pg/mL
- Serum Dehydroepiandrosterone CFB (vs Day −1) [2, 9]: −64%
- Serum Dehydroepiandrosterone Mean [2, 9]: 1200 pg/mL
- Serum Deoxycortisol CFB (vs Day −1) [2, 9]: −49%
- Serum Deoxycortisol Mean [2, 9]: 141 pg/mL
- Serum Dihydrotestosterone CFB (vs Day −1) [2, 9]: −90%
- Serum Dihydrotestosterone Mean [2, 9]: 165 pg/mL
- Serum Progesterone CFB (vs Day −1) [2, 9]: 75799%
- Serum Progesterone Mean [2, 9]: 15180 pg/mL
- Serum Testosterone CFB (vs Day −1) [2, 9]: −87%
- Serum Testosterone Mean [2, 9]: 1246 pg/mL
- Serum Testosterone CFB (vs Day −1) ([2]; 200 mg/kg IM every two weeks, Day 85, listed as AbiDec): −87%
- serum testosterone levels reduced ([2]; 200 mg/kg/dose, for at least 85 days): more than 75%
- Androstenedione serum concentration below Day −1 [2, 10]: 53-77%
- dihydrotestosterone serum concentration below Day −1 [2, 10]: 61-69%
- circulating androgen levels ([2]; gonadally intact male monkeys, appeared dose dependent, sustained for testosterone through Day 85 at 200 mg/kg/dose): potent reductions in circulating androgen levels
- Serum testosterone concentrations following repeat administration ([2]; two lower dose groups (20, 60 mg/kg) by Day 85): returned to baseline
- abiraterone plasma exposure [3]: much higher abiraterone plasma exposure
